Data reported in patent US20150224164A1, “TREATMENT OF AUTISM SPECTRUM DISORDERS USING GLYCYL-L-2-METHYLPROLYL-L-GLUMATIC ACID” (Neuren Pharmaceuticals Limited, priority 2013, published 2015).
Where a SMILES comes first, the peptide text is derived from it.

Tests used:
[1] = test system: hippocampal CA1 neurons of mecp2 null mutant mice; assay: Dendritic arborization and spine analysis, Golgi staining (Example 9); assay type: in vivo, mouse
Experimental: We assess the effects of G-2-MePE treatment on dendrites. Transgenic mecp2 knockout mice (n=15 to 20) were administered G-2-MePE intraperitoneally at a dose of 20 mg/kg once daily. Following sacrifice dendritic spine density, spine length and aborization were examined after Golgi staining after nine weeks, as per the Table 1 below:
Dendritic length was assessed by distance from the soma of representative hippocampal CA1 neurons from 9 week old male mecp2 null mutant mice treated with either saline (3 neurons analysed from 3 separate mice, n=9) or G-2-MePE (20 mg/kg i.p. 1/day, from week 4; 3 neurons analysed from 3 separate mice, n=9).

[2] = test system: RTT iPSC-derived neurons; assay: In vitro human model of Rett Syndrome, iPSC-derived neurons (Example 14); assay type: cell-based; conditions: 1 nM-10 μM for 1 week
Experimental: RTT fibroblasts (carrying 4 distinct MeCP2 mutations) and control fibroblasts are generated from explants of dermal biopsies. The shRNA against target MeCP2 gene is cloned into the LentiLox3.7 lentivirus vector (as described in Marchetto et al.). The fibroblasts are infected with retroviral reprogramming vectors (Sox2, Oct4, c-Myc and Klf4). Two days after infection, fibroblasts are plated on mitotically inactivated mouse embryonic fibroblasts with hESC medium. After 2 weeks, iPSC colonies that emerge from the background of fibroblasts are manually picked and transferred to feeder-free conditions on matrigel-coated dishes (BD) using embryonic stem cell culture media mTeSR™ (Stem Cell Technologies) and passaged manually. Gene expression profiles of the generated clones are measured using human genome Affymetrix Gene Chip™ arrays to confirm that reprogramming is successful. […]
Cells are fixed in 4% paraformaldehyde and permeabilized with 0.5% Triton-X100 in PBS. […] Fluorescent signals are detected using a Zeiss inverted microscope and images are processed with Photoshop CS3. The following primary antibodies are used: TRA-1-60, TRA-1-81 (1:100), Nanog and Lin28 (1:500), human Nestin (1:100), Tuj-1 (1:500), Map2 (1:100); meCP2 (1:1000; VGLUT1 (1:200), Psd95 (1:500), GFP (1:200), Sox1 (1:250), Mushasil (1:200) and me3H3K27 (1:500). Cell soma size is measured using suitable software (e.g. ImageJ) after identification of neurons using the Syn::EGFP™. The morphologies of neuronal dendrites and spines are studied from an individual projection of z-stacks optical sections and scanned at 0.5 um increments that correlate with the resolution valued at z-plane. Each optical section is the result of 3 scans at 500 lps followed by Kalman filtering. For synapse quantification, images are taken by a z-step of 1 um using Biorad radiance 2100™ confocal microscope. Synapse quantification is done blinded to genotype. Only VGLUT1 puncta along Map2-positive processes are counted. […]

[3] = test system: MeCP2 knockout mice; assay: Nocturnal locomotor activity (Example 10); assay type: in vivo, mouse; conditions: after 6 weeks; 20 mg/kg i.p. daily
Experimental: Spontaneous motor activity is measured by using an infrared beam-activated movement-monitoring chamber (Opto-Varimax-MiniA; Columbus Instruments, Columbus, Ohio). For each experiment, a mouse is placed in the chamber at least 3 h before recordings started. Movement is monitored during the normal 12-h dark cycle (7 p.m. to 7 a.m.). One dark cycle per animal per time point is collected.

SMILES: C[C@@]1(C(=O)N[C@@H](CCC(=O)O)C(=O)O)CCCN1C(=O)CN [Example G-2-MePE, Glycyl-L-2-methylprolyl-L-glutamic acid] (HELM PEPTIDE1{G.[C[C@@]1(C(=O)[*:2])CCCN1[*:1]].E}$$$$V2.0)
- dendritic length by distance from the soma ([1]; 20 mg/kg i.p. 1/day from week 4, vs saline): produced longer dendrites
- dendritic arborization and dendritic spine length ([1]; 20 mg/kg i.p. once daily, 9 week old mice): improved dendritic arborization and increased dendritic spine length
- frequency and amplitude of spontaneous post-synaptic currents, frequency of calcium transients [2]: normalizes
- glutamatergic synapse numbers [2]: significant increase
- VGLUT1 puncta number ([2]; all concentrations): increase VGLUT1 puncta number
- nocturnal locomotor activity levels [3]: elevates these levels
